Experimental data published in patent US20240041796A1, “ANTI-INFLAMMATORY COMPOSITION COMPRISING N-BENZYL-N-METHYLDECAN-1-AMINE OR A DERIVATIVE THEREOF AS AN ACTIVE INGREDIENT” (PUSAN NATIONAL UNIVERSITY INDUSTRY-UNIVERSITY COOPERATION …, priority 2022, published 2024).

Experiments:
[1] = test system: DBA/J1 male mice; assay: Rheumatoid arthritis model induced by type 2 bovine collagen, oral administration; format: in vivo, mouse; settings: for inflammation and synovitis of joint tissues: H&E stained joint sections, FIG. 5A-B; for expression of HO-1 in the joints / expression of Nrf2 in the joints: immunoblotting, FIG. 6B; for length of the spleen / weight of the spleen / swelling of the feet / weight loss caused by rheumatism induced by collagen: oral 20 mg/body weight Kg for 21 days; for length of the spleen / weight of the spleen: vs control, FIG. 4C-D; for swelling of the feet: vs soybean oil control, FIG. 4A-B; for weight loss caused by rheumatism induced by collagen: FIG. 4B
Procedure: Rheumatoid arthritis was induced in 7-week-old DBA/J1 male mice. We thoroughly mixed the type 2 collagen at a concentration of 2 mg/mL with CFA (Complete Freund's Adjuvant) in the mixing ratio 1:1. We injected 0.1 mL (100 μg) of the mixture intradermally to a position away 2 cm from a base of the tail. After 2 weeks, we mixed the type 2 collagen with IFA instead of CFA in the mixing ratio 1:1. We administered the mixture subcutaneously to the base of the tail in the same amount and volume as those in the first injection. After 3 days, we grouped the mice into 4 groups and performed second administration thereto.
(§1) In one example, BMDA (FMJ-G0) and a derivative thereof (DMMA, FMJ-G4) at a concentration of 2.5 mg/mL were orally administered to male mice in a volume of 200 μL (20 mg/body weight Kg) for 21 days. In a control group, soybean oil was orally administered thereto.
(§2) During the experiment, the insteps of the forelimbs and hindlimbs were measured with a caliper three times a week, and the mice were suffocated, and joint areas were prepared for immunohistochemical staining and immunoblotting. Moreover, the spleen was removed therefrom and a size thereof was measured. Further, blood was drawn through the hepatic portal vein to prepare serum. A specific method was as follows. • 1) Paraffin sections were prepared as the joints including the ankles of the forelimbs. At this time, decalcification is performed first, followed by sectioning the same at a thickness of 4 μm, and H&E staining. • 2) The cell lysis solution was added thereto, and then we crushed the tissue with a sonicator, which was prepared for immunoblotting. • 3) Trisol solution was added to the joint tissue, the tissue was pulverized in a sonicator, and centrifuged, and the Trisol solution was used to precipitate proteins and DNA for entire RNA separation, and the entire RNA was collected from the supernatant obtained via the centrifugation. c-DNA was synthesized using oligo-dT primer and reverse transcriptase, and then, quantitative qRT-PCR and immunoblotting were performed thereon.

[2] = test system: male SD rats; assay: DNBS-induced colitis model, enema administration; format: in vivo, rat; settings: for inflammatory response caused by DNBS / length of the large intestine (colon) / ulcer scab: 500 μL of 200 μg/mL through the anus for 5 days; for inflammatory response caused by DNBS: FIG. 3A-B; for production amount of CNIC-3 chemokine: ELISA of colon supernatant, FIG. 3E; for body weight lost due to the DNBS treatment: FIG. 3C; for length of the large intestine (colon) / ulcer scab: vs DNBS+PBS group; for macrophage peroxidase (MPO) activity in colon: vs DNBS+PBS-treated rat, FIG. 3D
Procedure: For experimental colitis, male SD rats (250 to 260 g) were fasted one day before developing colitis. A water bottle was prepared so that only water could be consumed by the rats. Then, after anesthesia of the rats, a rubber cannula is inserted into the anus, and a solution in which 48.0 mg DNBS was dissolved in 0.4 mL of 50% alcohol was injected thereto through the cannula. This process was repeated for 3 days.
From the 4th day since the DNBS was inserted, anesthesia of the rats was carried out, and then BMDA (FMJ-G0) and a derivative thereof (DMMA, FMJ-G4) were diluted with PBS, and then 500 μL of the diluted substance was injected at a concentration of 200 μg/mL thereto through the anus. This process was repeated for 5 days. In a control group, DMSO was diluted in PBS at the same concentration and then was injected in the same way for 5 days. Thereafter, on day 6, the rats were suffocated, and the large intestine was removed therefrom to evaluate a level of colitis according to a known method.
Moreover, a portion of the large intestine was removed, placed in a cell lysis buffer (20 mM Tris-HCl [pH 7.5], 150 mM NaCl, 1 mM EDTA, 1% Triton X-100, 0.5% SDS), and subjected to ultrasonic treatment. Centrifugation was carried out to collect only the supernatant. We quantified the protein, and performed immunoblotting thereon.
Further, a portion of the supernatant obtained after the centrifugation as prepared for immunoblotting was used to measure the amount of the chemokine CINC-3 (Cytokine-induced neutrophil chemoattractant) based on ELISA. Moreover, in order to measure the level of activity of macrophages infiltrated into the distal colon, a titer of MPO (Myeloperoxidase) was measured. The distal colon was pulverized in a supersonic pulverizing device, was centrifuged to obtain the supernatant. Then, hydrogen peroxide was added to the supernatant for decomposition. Change in absorbance was measured at 460 nm for 1 minute.

[3] = test system: human THP-1 monocytic cell line; assay: LPS-induced inflammation-related signal transduction in THP-1 cells, immunoblotting; format: cell-based; settings: THP-1 cultured 3 hours with compound, then LPS 1 μg/ml 1 hour; FIG. 2A-B
Procedure: Each of BMDA (FMJ-G0) or DMMA (FMJ-G4) was added to a culture medium at concentrations of […], and 1 μM in a 6-well plate. The human THP-1 monocytic cell line (5×10^5 cells/well) was cultured therein for 3 hours. Each well was treated with lipopolysaccharide at a concentration of 1 μg/ml. After 1 hour, centrifugation was performed to obtain a supernatant which was used in an ELISA for inflammatory cytokine evaluation. Cell lysate was added to the collected THP-1 cells for immunoblotting.

[4] = test system: DBA/J1 male mice; assay: Serum AST and ALT activity (hepatotoxicity indicators) in the collagen-induced rheumatoid arthritis model; format: in vivo, mouse; settings: oral administration for 3 weeks; FIG. 7
Procedure: as §1, §2

`CCCCCCCCCCN(C)Cc1ccccc1` [BMDA, N-benzyl-N-methyldecan-1-amine] was tested, and the “inflammation and synovitis of joint tissues” value [1] was “significantly reduced”, the “expression of HO-1 in the joints” value [1] was “increased” and the “expression of Nrf2 in the joints” value [1] was “increased”. For the same compound, the “length of the spleen” value [1] was “reduced”, the “weight of the spleen” value [1] was “reduced” and the “swelling of the feet” value [1] was “much smaller”. The “weight loss caused by rheumatism induced by collagen” value [1] was “did not restore”, the “inflammatory response caused by DNBS” value [2] was “significantly reduced” and the “production amount of CNIC-3 chemokine” value [2] was “low”. The “body weight lost due to the DNBS treatment” value [2] was “did not restore”, the “length of the large intestine (colon)” value [2] was “no significant difference” and the ulcer scab [2] was “much smaller”. For the same compound, the “macrophage peroxidase (MPO) activity in colon” value [2] was “much lower”, the “activity of JNK activated by LPS” value [3] was “suppressed” and the “activity of p38 MAPK activated by LPS” value [3] was “suppressed”. For the same compound, the “inflammation-related signaling pathway leading to p38 MAPK-MK2” value [3] was “inhibited”, the “activity of ALT enzyme in serum” value [4] was “did not increase” and the “activity of AST enzyme in serum” value [4] was “did not increase”.

In the case of `CCCCCCCCCCN(C)Cc1ccc(OC)cc1` [DMMA, Decyl-(4-methoxy-benzyl)-methyl-amine], the “inflammation and synovitis of joint tissues” value [1] is reported as “significantly reduced”, the “expression of HO-1 in the joints” value [1] is reported as “increased” and the “expression of Nrf2 in the joints” value [1] is reported as “increased”. For the same compound, the “length of the spleen” value [1] was “reduced”, the “weight of the spleen” value [1] was “reduced” and the “swelling of the feet” value [1] was “much smaller”. For the same compound, the “weight loss caused by rheumatism induced by collagen” value [1] was “did not restore”, the “inflammatory response caused by DNBS” value [2] was “significantly reduced” and the “production amount of CNIC-3 chemokine” value [2] was “low”. For the same compound, the “body weight lost due to the DNBS treatment” value [2] was “did not restore”, the “length of the large intestine (colon)” value [2] was “larger than that of the DNBS+PBS-treated rat group” and the ulcer scab [2] was “reduced”. For the same compound, the “macrophage peroxidase (MPO) activity in colon” value [2] was “much lower”, the “activity of JNK activated by LPS” value [3] was “suppressed” and the “activity of p38 MAPK activated by LPS” value [3] was “suppressed”. The “inflammation-related signaling pathway leading to p38 MAPK-MK2” value [3] was “inhibited”, the “activity of ALT enzyme in serum” value [4] was “did not increase” and the “activity of AST enzyme in serum” value [4] was “did not increase”.
